Reference: patent US7799775B2, “Pyrimidine derivatives” (ASKA Pharmaceutical Co., Ltd., priority 2004, dated 2010)
Counter-ions that a name gives are not always drawn. Blank lines part the entries; values can stand above or below the compound they belong to.

Tests used:
[1] = test system: rats under restraint stress; assay: Measurement of defecation acceleration in rats under restraint stress; format: in vivo, rat; conditions: 1 hour restraint stress, group average (Normal 1.7, Control 6.8)
Experimental: (5) Measurement of Defecation Acceleration in Rats under Restraint Stress […] Feed and drinking water were left for their free ingestion until the morning of the day on which the test was given. On the day of the experiment, test compounds were orally administered and positive control solution (the used compounds were dissolved in 1N-hydrochloric acid and diluted with a suitable amount of saline) was administered intraperitoneally. Five (5) minutes thereafter, under lightly anesthetized condition, the rats were placed under restraint stress, with their upper half of the bodies including the front feet immobilized with gum tape. The restraint stress loading was conducted for an hour, and the number of excrements discharged during that period was counted. […] Those compounds which were used as the positive control chemicals used in the acceleration of defecation in rats under restraint stress are identified with the following structures.

5-HT3 receptor = target: T1, 5-HT3 receptor (Rattus norvegicus, UniProt P35563); assay: Measurement of 5-HT3 receptor antagonistic action on rats (in vivo): inhibition of serotonin-induced bradycardia (BJ reflex); conditions: anesthetized SD male rats, dose 1.0 mg/kg intravenous, serotonin 300 μg/kg 10 minutes later
T1 construct: from tissue; host or cells: whole animal (SD male rats), serotonin-induced bradycardia
T1 sequence (P35563 24-483): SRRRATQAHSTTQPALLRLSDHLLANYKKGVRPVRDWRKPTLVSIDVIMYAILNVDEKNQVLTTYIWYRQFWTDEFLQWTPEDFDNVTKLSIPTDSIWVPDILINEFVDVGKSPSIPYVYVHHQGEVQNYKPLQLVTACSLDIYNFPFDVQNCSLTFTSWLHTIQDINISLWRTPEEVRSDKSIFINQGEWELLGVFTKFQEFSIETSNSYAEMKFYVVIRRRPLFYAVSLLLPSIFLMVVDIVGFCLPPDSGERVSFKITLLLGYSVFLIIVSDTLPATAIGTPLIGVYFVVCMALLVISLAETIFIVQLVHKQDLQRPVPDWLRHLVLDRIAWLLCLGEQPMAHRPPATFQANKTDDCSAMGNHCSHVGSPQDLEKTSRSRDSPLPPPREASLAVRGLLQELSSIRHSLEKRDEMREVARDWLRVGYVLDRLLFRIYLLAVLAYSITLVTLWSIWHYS
Experimental: (4) Measurement of 5-HT3 Receptor Antagonistic Action on Rats (in Vivo)
SD male rats (weighing 270-410 g) were anesthetized by peritoneal administration of 1.25 g/kg of urethane (as dissolved in distilled water), and then catheters for measuring blood pressure and heart rate were inserted into their left carotid artery and a catheter for administration of test compound was inserted into their […]. After their blood pressure and heart rate were stabilized, 300 μg/kg of 5-hydroxytryptamine creatinine sulfate (serotonin) was rapidly intravenously administered and thereby induced transient bradycardiac reaction (BC 1) was observed. When the blood pressure and heart rate were re-stabilized after the serotonic administration, the test compounds were intravenously administered to the rats. Ten minutes thereafter, 300 μg/kg of serotonin was once again rapidly intravenously administered and thereby induced transient bradycardiac reaction (BC 2) was observed. Percent inhibition of bradycardia manifestation of each test compound, i.e., BJ reflex inhibition, can be calculated according to the following expression: […]

5-HT1A receptor = target: T2, 5-HT1A receptor (Rattus norvegicus, UniProt P19327); assay: Measurement of 5-HT1A receptor agonistic action on rats (in vivo): lower lip retraction and flat body posture; conditions: SD male rats, 10 mg/kg intraperitoneal; maximum of group evaluation points, 4 grades 0-3, observed 5-30 min after administration
T2 construct: from tissue; host or cells: whole animal (SD male rats), behavioural read-out
T2 sequence (P19327 1-422): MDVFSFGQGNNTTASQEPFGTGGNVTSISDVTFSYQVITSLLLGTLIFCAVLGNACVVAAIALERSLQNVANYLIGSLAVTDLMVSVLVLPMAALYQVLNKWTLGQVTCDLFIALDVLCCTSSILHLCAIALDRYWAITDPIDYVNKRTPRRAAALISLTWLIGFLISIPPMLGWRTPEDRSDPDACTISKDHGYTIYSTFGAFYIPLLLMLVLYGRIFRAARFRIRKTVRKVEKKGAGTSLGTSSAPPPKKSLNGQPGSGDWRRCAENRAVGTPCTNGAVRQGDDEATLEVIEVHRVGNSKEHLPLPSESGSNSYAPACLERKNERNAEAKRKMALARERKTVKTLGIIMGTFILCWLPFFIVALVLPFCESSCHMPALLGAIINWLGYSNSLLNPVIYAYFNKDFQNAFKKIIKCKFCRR
Experimental: (3) Measurement of 5-HT1A Receptor Agonistic Action on Rats (in Vivo):
Seven weeks old SD male rats were divided into 4-5 rats per group which were accustomized to the experimental environments twice. A week after the second accustomization, the rats were put into a transparent plastic case, and 10 mg/kg of a test compound (as dissolved in 1N-hydrochloric acid and diluted with suitable amount of saline) was intraperitoneally administered thereto. Immediately before the administration and 5, 10, 20 and 30 minutes after the administration, behaviors of the rats were observed as to lower lip retraction (LLP) and flat body posture (FBP). The results were evaluated in 4 grades (0: no reaction, 1: feeble reaction, 2: medium reaction, 3: maximum reaction).

human 5-HT1A receptor = target: T3, human 5-HT1A receptor (Homo sapiens, UniProt P08908); assay: Affinity measurement of the compounds to human 5-HT1A receptor (in vitro), [3H]8-OH-DPAT binding; conditions: test compound 100 nmols/L; [3H]8-OH-DPAT 0.25 nmols/L; CHO cell membrane expressing human 5-HT1A receptor; read-out: Percent Inhibition (%) on Each Receptor's Binding at 10^−7M, 5-HT1A
T3 construct: purchased Packard Bioscience; host or cells: CHO cells (membrane preparation)
T3 sequence (P08908 1-422): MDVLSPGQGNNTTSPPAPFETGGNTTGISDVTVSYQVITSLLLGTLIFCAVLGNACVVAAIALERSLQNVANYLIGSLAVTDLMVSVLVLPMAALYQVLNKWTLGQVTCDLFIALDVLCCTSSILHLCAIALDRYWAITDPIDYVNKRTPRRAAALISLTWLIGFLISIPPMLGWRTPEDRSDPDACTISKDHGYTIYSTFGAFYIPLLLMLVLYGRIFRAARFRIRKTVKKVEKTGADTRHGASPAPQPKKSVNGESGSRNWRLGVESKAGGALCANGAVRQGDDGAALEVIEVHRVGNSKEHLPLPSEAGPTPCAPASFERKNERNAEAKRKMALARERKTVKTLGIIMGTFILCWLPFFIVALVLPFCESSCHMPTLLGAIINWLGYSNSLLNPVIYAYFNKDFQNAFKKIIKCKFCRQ
Method in brief: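 Membranes from CHO cells expressing human 5-HT1A were incubated 60 min at 27 °C with 0.25 nmol/L [3H]8-OH-DPAT and compound in Tris/MgSO4/EDTA/ascorbate buffer, pH 7.4. Bound radioactivity was collected on PEI-soaked GF/C filters and counted; percent inhibition was corrected for non-specific binding defined with 10 μmol/L 8-OH-DPAT.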

human 5-HT3 receptor = target: T4, human 5-HT3 receptor (Homo sapiens, UniProt P46098); assay: Measurement of affinity to human 5-HT3 receptor (in vitro), [3H]BRL-43694 binding; conditions: test compound 100 nmols/L; [3H]BRL-43694 0.5 nmols/L; HEK-293 cell membrane expressing human 5-HT3 receptor; read-out: Percent Inhibition (%) on Each Receptor's Binding at 10^−7M, 5-HT3
T4 construct: purchased BIOLINKS K.K; host or cells: HEK-293 cells (membrane preparation)
T4 sequence (P46098 24-478): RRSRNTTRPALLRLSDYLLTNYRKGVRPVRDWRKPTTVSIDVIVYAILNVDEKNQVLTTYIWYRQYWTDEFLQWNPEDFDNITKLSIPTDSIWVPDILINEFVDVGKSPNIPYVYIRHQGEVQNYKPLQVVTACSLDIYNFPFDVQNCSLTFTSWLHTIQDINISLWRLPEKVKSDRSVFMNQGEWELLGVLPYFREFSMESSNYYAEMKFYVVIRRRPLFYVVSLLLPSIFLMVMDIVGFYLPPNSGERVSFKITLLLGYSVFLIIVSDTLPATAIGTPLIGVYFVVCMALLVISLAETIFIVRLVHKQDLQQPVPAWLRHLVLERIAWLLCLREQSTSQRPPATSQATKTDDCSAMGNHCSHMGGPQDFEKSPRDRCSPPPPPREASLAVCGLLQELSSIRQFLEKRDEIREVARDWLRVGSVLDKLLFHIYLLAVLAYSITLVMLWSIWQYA
Method in brief: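 Membranes from HEK-293 cells expressing the receptor were incubated with 0.5 nmol/L radioligand and compound for 60 min at 25 °C in Tris/MgCl2/EDTA buffer, pH 7.5. Bound radioactivity was collected by filtration and counted. Percent inhibition was corrected for non-specific binding defined with 10 μmol/L tropisetron; compounds were tested at 100 nmol/L.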

[2] = 1 mg/kg intraperitoneal administration
[3] = 3 mg/kg intraperitoneal administration
[4] = 0.3 mg/kg intraperitoneal administration

melting point: 160.1 to 161.8 °C
Structure (SMILES): CCOC(=O)c1sc2nc(SCCCN3CCN(c4ccccn4)CC3)[nH]c(=O)c2c1C [Example 2-3, 5-methyl-4-oxo-2-[3-(4-pyridin-2-ylpiperazin-1-yl)propylthio]-3,4-dihydrothieno[2,3-d]pyrimidine-6-carboxylic acid ethyl ester]

Structure (SMILES): O=C(O)CC(O)(CC(=O)O)C(=O)O.O=C1[C@@H]2[C@H]3CC[C@H](C3)[C@@H]2C(=O)N1CCCCN1CCN(c2ncccn2)CC1 [tandospirone, reference compound]
Number of excrements [1, 2]: 5.7
Number of excrements [1, 3]: 4.3
Number of excrements ([1]; 10 mg/kg intraperitoneal administration): 3.8

Structure (SMILES): Oc1ccc2ccnc(N3CCNCC3)c2c1 [Production Example 95, 7-hydroxy-1-piperazin-1-ylisoquinoline hydrochloride]
BC Inhibition (%) (5-HT3 receptor): 96.0%

Structure (SMILES): c1ccc2c(N3CCNCC3)nccc2c1 [Production Example 35, 1-piperazin-1-ylisoquinoline]
BC Inhibition (%) (5-HT3 receptor): 94.6%

Structure (SMILES): Cl.O=C1CC2(CCCC2)CC(=O)N1CCCCN1CCN(c2ncccn2)CC1 [buspirone, reference compound]
Number of excrements [1, 2]: 4.3

Structure (SMILES): CN1CCN(c2nccc3ccc(Cl)cc23)CC1 [Production Example 50, 7-chloro-1-(4-methylpiperazin-1-yl)isoquinoline]
BC Inhibition (%) (5-HT3 receptor): 86.8%

Structure (SMILES): Cc1[nH]cnc1CN1CCc2c(c3ccccc3n2C)C1=O.Cl [alosetron, reference compound]
Number of excrements [1, 4]: 5.2
Number of excrements [1, 2]: 4.1
Number of excrements [1, 3]: 3.7

Structure (SMILES): COc1ccc2ccnc(N3CCNCC3)c2c1 [Production Example 34, 7-methoxy-1-piperazin-1-ylisoquinoline]
5-HT1A Receptor Agonistic Action on Rats, FBP (5-HT1A receptor): 2.8
5-HT1A Receptor Agonistic Action on Rats, LLR (5-HT1A receptor): 3.0
BC Inhibition (%) (5-HT3 receptor): 92.0%

Structure (SMILES): Cc1ccc2ccnc(N3CCNCC3)c2c1 [Production Example 46, 7-methyl-1-piperazin-1-ylisoquinoline]
BC Inhibition (%) (5-HT3 receptor): 94.4%

Structure (SMILES): Cc1nccn1C[C@H]1CCc2c(c3cccc4c3n2CCC4)C1=O [cilansetron, reference compound]
Number of excrements [1, 2]: 4.0

Structure (SMILES): CN1[C@@H]2CCC[C@H]1C[C@@H](NC(=O)c1nn(C)c3ccccc13)C2.Cl [granisetron, reference compound]
Number of excrements [1, 4]: 4.3

Structure (SMILES): CN1CCN(c2nccc3sc(Br)cc23)CC1 [Production Example 10, 2-bromo-4-(methylpiperazin-1-yl)thieno[3,2-c]pyridine]
inhibition at 0.1 µM (human 5-HT1A receptor): 98.5%
inhibition at 0.1 µM (human 5-HT3 receptor): 73.8%

Structure (SMILES): c1cc2ccoc2c(N2CCNCC2)n1 [Production Example 1, 7-piperazin-1-ylfuro[2,3-c]pyridine]
inhibition at 0.1 µM (human 5-HT1A receptor): 86.7%
inhibition at 0.1 µM (human 5-HT3 receptor): 80.8%

inhibition at 0.1 µM (human 5-HT1A receptor): 78.3%
inhibition at 0.1 µM (human 5-HT3 receptor): 30%
Structure (SMILES): Cc1ccc2c(=O)n(C)c(CCCCN3CCN(c4ccc5ccccc5n4)CC3)nc2c1 [Example 7-24, 3,7-dimethyl-2-[4-(4-quinolin-2-ylpiperazin-1-yl)butyl]-3H-quinazolin-4-one]

Structure (SMILES): O[C@@H]1C[C@H]2CN(c3nccc4occc34)CCN2C1 [Production Example 114, 4-((7R,8aS)-7-hydroxyoctahydropyrrolo[1,2-a]pyrazin-2-yl)furo[3,2-c]-pyridine]
inhibition at 0.1 µM (human 5-HT1A receptor): 16.7%
inhibition at 0.1 µM (human 5-HT3 receptor): 91%

inhibition at 0.1 µM (human 5-HT1A receptor): 93.4%
inhibition at 0.1 µM (human 5-HT3 receptor): 78.8%
Structure (SMILES): Cc1cc(N2CCN(CCCCc3nc4c(c(=O)n3Cc3ccccc3)CCCC4)CC2)nc2ccccc12 [Example 7-8, 3-benzyl-2-[4-[4-(4-methylquinolin-2-yl)piperazin-1-yl]butyl]-5,6,7,8-tetrahydro-3H-quinazolin-4-one]

inhibition at 0.1 µM (human 5-HT1A receptor): 53%
inhibition at 0.1 µM (human 5-HT3 receptor): 6.3%
Structure (SMILES): Cn1c(CCCN2CCN(c3ccc4ccccc4n3)CC2)nc2c(c1=O)CCCC2 [Example 7-5, 3-methyl-2-[3-(4-quinolin-2-ylpiperazin-1-yl)propyl]-5,6,7,8-tetrahydro-3H-quinazolin-4-one]

inhibition at 0.1 µM (human 5-HT1A receptor): 97.4%
inhibition at 0.1 µM (human 5-HT3 receptor): 95%
Structure (SMILES): CCn1c(CCCCN2CCN(c3ccc4ccccc4n3)CC2)nc2ccccc2c1=O [Example 7-21, 3-2-[4-(4-quinolin-2-ylpiperazin-1-yl)butyl]-3H-quinazolin-4-one]
